Test results reported in patent EP1179529A1, “NOVEL HYDROXAMIC ACID DERIVATIVES” (Daiichi Fine Chemical Co., Ltd., priority 1999, dated 2000).
Where a name gives a salt, the structure may show the parent alone.

Experiments:
MMP-1 = molecular target: T1, MMP-1 (Homo sapiens, UniProt P03956); assay: Assay for inhibition of collagenase; assay type: biochemical; conditions: human fibroblast collagenase activated with APMA; substrate fluorescein-labeled bovine type I collagen; 35°C, 2 hours, pH 7.5
T1 sequence (P03956 100-469): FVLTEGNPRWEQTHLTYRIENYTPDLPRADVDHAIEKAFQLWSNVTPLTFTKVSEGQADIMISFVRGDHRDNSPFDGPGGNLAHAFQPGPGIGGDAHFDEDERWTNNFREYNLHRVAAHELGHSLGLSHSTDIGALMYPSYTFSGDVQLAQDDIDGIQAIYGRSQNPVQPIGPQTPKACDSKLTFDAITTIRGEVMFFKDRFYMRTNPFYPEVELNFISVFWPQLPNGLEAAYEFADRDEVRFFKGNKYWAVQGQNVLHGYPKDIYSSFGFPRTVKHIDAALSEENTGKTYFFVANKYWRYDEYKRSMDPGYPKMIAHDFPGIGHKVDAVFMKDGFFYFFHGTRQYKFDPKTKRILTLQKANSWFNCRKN
Procedure: (§1) Described below are assays for biological activities of the compounds according to the present invention, formulations, dosage forms and dosage levels thereof, and miscellaneous matters. The efficacy of the compounds represented by the formula (I) according to the present invention as inhibitors of human fibroblast collagenase (metalloproteinase involved in the breakdown of tissues) is determined by a procedure based on the method of Y. Murawaki et al., Journal of Hepatology, 18, p328-334 (1993). The efficacy of the compounds (I) of this invention as inhibitors of human fibroblast stromelysin is determined by a procedure based on the method of S. S. Twining, Anal. Biochem., 143, p30 (1984). The assay results obtained are shown hereinbelow, together with biological examples which illustrate embodiments of the assay protocols.
The efficacy of compounds of the present invention to act as inhibitors of human fibroblast collagenase was determined by the procedure of Y. Murawaki et al. (Journal of Hepatology, 18, p.328-334, 1993).
Procollagenase was activated by incubation with 2 mM 4-aminophenylmercuric acetate (APMA) at 35°C for 2 hours. The inhibition was assayed using, as a substrate, fluorescein-labeled bovine type I collagen. To a solution of the substrate (0.5 mg/ml) in a 50 mM Tris-HCl buffer, pH 7.5, containing 0.4M aqueous sodium chloride and 10 mM aqueous calcium chloride was added the activated collagenase. The resultant solution was incubated at 35°C for 2 hours. The digestion of the substrate with the enzyme was stopped by addition of 80 mM o-phenanthroline, followed by addition of a porcine elastase solution formed by dissolving 25µ g/ml porcine elastase in the aforementioned Tris-HCl buffer. The mixture was incubated at 37°C for 10 minutes. To the resulting solution was added 70% ethanol, and a 170 mM Tris-HCl buffer, pH 9.5, containing 0.67 M aqueous sodium chloride. Undigested substrates were precipitated by centrifugation at 3000 x g for 20 minutes. The supernatant was collected and the fluorescence was read using an excitation wavelength of 495 nm and an emission wavelength of 520 nm. The inhibitory potency of the compounds was calculated. IC50 represents the concentration of each test compound requited for 50% inhibition of cleavage of substrates by the enzyme alone. The compounds of the present invention have potent inhibitory activities (Table 1).

MMP-3 = MMP-3 (Homo sapiens, UniProt P08254); assay: Assay for inhibition of stromelysin; assay type: biochemical; conditions: human fibroblast stromelysin activated with human plasmin; substrate fluorescein-labeled casein; 37°C, 2 hours, pH 7.8
Sequence of MMP-3 (P08254 100-477): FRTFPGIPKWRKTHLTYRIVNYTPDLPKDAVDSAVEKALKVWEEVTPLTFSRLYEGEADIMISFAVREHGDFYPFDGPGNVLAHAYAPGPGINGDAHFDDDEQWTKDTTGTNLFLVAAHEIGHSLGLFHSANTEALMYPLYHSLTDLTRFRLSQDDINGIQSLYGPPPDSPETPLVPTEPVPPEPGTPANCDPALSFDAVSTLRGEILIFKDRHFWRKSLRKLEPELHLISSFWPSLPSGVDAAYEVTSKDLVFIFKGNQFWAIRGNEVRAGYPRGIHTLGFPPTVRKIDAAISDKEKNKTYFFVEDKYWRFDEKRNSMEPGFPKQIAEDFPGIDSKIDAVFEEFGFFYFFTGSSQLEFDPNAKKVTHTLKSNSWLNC
Procedure: as §1
The efficacy of compounds of the present invention to act as inhibitors of human fibroblast stromelysin was determined by the procedure of Twining (Anal. Biochem., 143, p.30, 1984).
Prostromelysin was activated by incubation with 20µ g/ml human plasmin at 37°C for 2 hours, and the reaction was stopped by addition of 2.8 mg/ml aqueous diisopropyl fluorophosphate. The inhibition was assayed using, as a substrate, fluorescein-labeled casein. To a solution of the substrate (1 mg/ml) in a 50 mM Tris-HCl buffer, pH 7.8, containing 10mM aqueous calcium chloride was added the activated stromelysin. The resultant solution was incubated at 37°C for 2 hours. The digestion of the substrate with the enzyme was stopped by addition of 5% trichloroacetic acid. Undigested substrates were precipitated by centrifugation at 3000 x g for 20 minutes. The supernatant was collected, followed by addition of a 0.5M Tris-HCl buffer, pH 8.5. The fluorescence was read using an excitation wavelength of 495 nm and an emission wavelength of 520 nm. The inhibitory potency of the compounds was calculated. IC50 represents the concentration of each test compound requited for 50% inhibition of cleavage of substrates by the enzyme alone. […]

IC50 (MMP-1)	IC50 (MMP-3)	Compound
0.418 µM	0.029 µM	CC(C)C[C@@H](C(=O)N[C@@H](Cc1ccc(CN)cc1)C(=O)O)[C@H](CCCc1ccccc1)C(=O)NO [Compound No. 11, N^a-[4-(N-Hydroxyamino)-2(R)-isobutyl-3(S)-(3-phenylpropyl)-succinyl]-L-4'-aminomethylphenylalanine]
0.5 µM	0.07 µM	CC(=N)NCc1ccc(C[C@H](NC(=O)[C@H](CC(C)C)[C@H](CCCc2ccccc2)C(=O)NO)C(=O)O)cc1 [Compound No. 10, N^a-[4-(N-Hydroxyamino)-2(R)-isobutyl-3(S)-(3-phenylpropyl)-succinyl]-L-4'-acetimidoyliminomethylphenylalanine · 1 acetate]
0.34 µM	–	CC(C)C[C@@H](C(=O)N[C@@H](Cc1ccc(CN)cc1)C(=O)O)[C@H](CCCc1ccccc1)C(=O)NO [Compound No. 8, N^a-[4-(N-Hydroxyamino)-2(R)-isobutyl-3(S)-(3-phenylpropyl)-succinyl]-L-4'-aminomethylphenylalanine · 1 hydrochloride]
0.167 µM	–	COC(=O)[C@H](Cc1ccc(CN)cc1)NC(=O)[C@H](CC(C)C)[C@H](CCCc1ccccc1)C(=O)NO [Compound No. 7, N^a-[4-(N-Hydroxyamino)-2(R)-isobutyl-3(S)-(3-phenylpropyl)-succinyl]-L-4'-aminomethylphenylalanine methyl ester · 1 acetate]
0.03 µM	0.02 µM	COC(=O)[C@H](Cc1ccc(CNC(C)=N)cc1)NC(=O)[C@H](CC(C)C)[C@H](CCCc1ccccc1)C(=O)NO [Compound No. 9, N^a-[4-(N-Hydroxyamino)-2(R)-isobutyl-3(S)-(3-phenylpropyl)-succinyl]-L-4'-acetimidoyliminomethylphenylalanine methyl ester 1 hydrochloride]
